The values below come from patent publication US20060084704A1, “Methods and compositions for enhancing degradation of nuclear receptor transcription factors and uses thereof” (priority 2004, published 2006).

For test [1], the target named is T1, LNCaP androgen receptor (endogenous mutant AR) (Homo sapiens, UniProt P10275, T878A).
T1 construct: LNCaP cells express an endogenous mutant AR that is found in prostate cancer patients; host or cells: LNCaP
T1 sequence (P10275 1-920 T878A): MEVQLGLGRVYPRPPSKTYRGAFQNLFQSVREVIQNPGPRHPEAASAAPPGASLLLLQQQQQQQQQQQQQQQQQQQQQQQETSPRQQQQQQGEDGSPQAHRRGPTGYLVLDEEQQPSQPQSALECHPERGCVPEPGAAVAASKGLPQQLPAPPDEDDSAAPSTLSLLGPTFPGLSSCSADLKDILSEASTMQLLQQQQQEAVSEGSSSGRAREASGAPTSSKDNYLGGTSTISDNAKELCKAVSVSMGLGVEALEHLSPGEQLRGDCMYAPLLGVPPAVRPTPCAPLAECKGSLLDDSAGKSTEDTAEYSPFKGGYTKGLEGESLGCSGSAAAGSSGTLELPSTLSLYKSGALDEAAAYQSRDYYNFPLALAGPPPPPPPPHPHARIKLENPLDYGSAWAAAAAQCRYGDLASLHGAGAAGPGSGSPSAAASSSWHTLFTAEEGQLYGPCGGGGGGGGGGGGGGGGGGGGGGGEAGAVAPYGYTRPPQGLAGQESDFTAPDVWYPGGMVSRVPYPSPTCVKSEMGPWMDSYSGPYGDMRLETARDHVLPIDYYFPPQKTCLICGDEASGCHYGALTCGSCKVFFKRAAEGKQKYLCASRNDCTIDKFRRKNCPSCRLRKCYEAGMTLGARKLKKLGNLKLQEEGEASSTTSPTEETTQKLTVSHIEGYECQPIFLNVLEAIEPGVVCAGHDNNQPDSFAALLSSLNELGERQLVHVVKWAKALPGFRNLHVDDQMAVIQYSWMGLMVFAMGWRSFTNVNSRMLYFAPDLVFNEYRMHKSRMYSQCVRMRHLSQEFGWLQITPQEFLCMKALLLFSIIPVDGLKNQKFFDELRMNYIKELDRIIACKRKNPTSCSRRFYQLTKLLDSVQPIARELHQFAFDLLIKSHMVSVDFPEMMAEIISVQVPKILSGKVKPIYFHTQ
The test can be described thus: Androgen receptor transactivation assay in LNCaP cells (MMTV-luciferase reporter). Format: cell-based. The following applies: DHT 1 nM, JC9 0 uM to 7.5 uM. The text has this: Prostate cancer cells, non-prostate tumor cells, and normal cells can be used in this transient transfection assay, which measures transactivation of the androgen receptor (AR) and can be used to detect a reduction of AR activity caused by AR degradation. In the provided non-limiting example, CV-1 (green monkey kidney cells lacking an androgen receptor) and LNCaP cells (prostate cancer cells containing an endogenous mutant AR), were transfected with a plasmid carrying an androgen response element (ARE) and a reporter gene.
Both the CV-1 and LNCaP cells (obtained from ATCC, Manassas, Va.) were maintained in […] medium supplemented with penicillin (25 units/millilter), streptomycin (25 micrograms/milliliter), and 10% heat-inactivated fetal bovine serum (FBS). Cells were plated in 35-millimeter dishes at a concentration of 1-2×10^5cells/well and cultured at 37 degrees Celsius in an incubator under a 5% carbon dioxide atmosphere. […] The cells were lysed, and luciferase activity of the lysate was measured with the Dual-Luciferase Reporter Assay System (Promega, Madison, Wis.). Data were expressed as relative luciferase activity normalized to the internal luciferase positive control. […]

The next test has as its system hsp70. Description: Western blot of LNCaP cell lysates, hsp70. Type of test: cell-based, human. Particulars: 1 or 2 micromolar, 24 hours, presence or absence of DHT. The procedure:
(§1) Human prostate cancer LNCaP cells and T47D cells were plated at a density of 7×10^5 cells per 60 millimeter tissue culture dish in […] (RPMI) medium containing 10% FBS. The medium was changed to RPMI or DME medium containing 10% charcoal-stripped serum 24 hours later to deplete cellular androgens or estrogens. After another 24 hours, treatment with the test compounds began. The test dose of JC15 was 1 or 2 micromolar and the test does of JC9 was 1, 5 and 10 micromolar. LNCap cells also received dihydrotestosterone (DHT) (3 nanomolar). Control cells received a corresponding amount of the vehicle, dimethylsulfoxide (DMSO) (<0.04%) for an equivalent exposure time. Cells were incubated with JC15 for 24 or 48 hours, and were lysed in 250 microliters of 1×SDS/PAGE loading buffer. Approximately 40 micrograms of total cellular protein was loaded in each lane of a pre-cast gel (NuPAGE, Invitrogen). Protein separation and transfer were performed following the manufacturer's instructions.
(§2) For the prostate cell lysates, androgen receptor (AR) protein was visualized by incubating the resultant membranes with an anti-AR antibody (BD-PharMingen), followed by chemiluminescence detection (ECL Plus, Amersham). […] The resultant protein signals were quantified using densitometry and NIH ImageJ software.

For another test, the target named is T2, androgen receptor (AR) (Homo sapiens, UniProt P10275, T878A).
T2 construct: LNCaP cells express an endogenous mutant AR that is found in prostate cancer patients; host or cells: LNCaP
T2 sequence (P10275 1-920 T878A): T1 sequence (P10275 1-920 T878A)
The test can be described thus: Western blot of LNCaP cell lysates, AR. Type of test: cell-based. Particulars: 1 or 2 micromolar, 24 hours, presence or absence of DHT. The procedure: as §1, §2

Turning to `COc1ccc(C=CC(=O)C=C(O)C=Cc2ccc(OC)c(OC)c2)cc1OC` [JC9, 5-hydroxy-1,7-bis(3,4-dimethoxyphenyl)-1,4,6-heptatrien-3-one], in test [1], the “LNCaP androgen receptor transactivation (relative luciferase activity)” value is listed as “dose-dependent inhibition of LNCaP androgen receptor transactivation”.

For the compound `CCOC(=O)CCC(C(=O)C=Cc1ccc(O)c(OC)c1)C(=O)C=Cc1ccc(O)c(OC)c1` (stereo not drawn) [JC15, 7-(4-hydroxy-3-methoxyphenyl)-4-[3-(4-hydroxy-3-methoxyphenyl)acryloyl]-5-oxo-hept-6-enoic acid ethyl ester], the “cellular concentration of hsp70” value in the test with hsp70 is listed as “did not substantially affect”. In addition, the “cellular concentration of AR” value at androgen receptor (AR) was “decreased”.
